Our source for the MIC values is patent EP3294317B1, “ENHANCED ANTIBIOTIC COMPOSITION” (Universitat Autònoma de Barcelona, priority 2015, dated 2016).

Molecules are shown by their SMILES.

By MIC is commonly meant the lowest concentration found to suppress growth.

Holding throughout (assay): Broth microdilution MIC of compound of formula I alone (Example 5)
Common to all, as to format: cell-based
A general note: In broth dilution the organism is exposed to a series of concentrations in liquid medium.

One assay deals with S. aureus RN4220. Particulars: Staphylococcus aureus, RN4220, read-out: Compound of formula I MIC in the presence of 1.0% DMSO. The method, then:
(§1) The antimicrobial effect of the compound of formula I of the invention was tested in front of specific Gram-positive bacterium, Staphylococcus aureus, an agent usually involved in hospital-acquired infections. For this experiment the S. aureus reference and clinical isolates shown in Table 8 were used, including Methicillin-resistant S. aureus (MRSA): TABLE 8
(§2) Antimicrobial susceptibility testing of these isolates was performed using the broth microdilution (BMD) method, according to CLSI guidelines (Example 1).
(§3) Selected compound of formula I was first dissolved in 100% of sterile-filtered dimethyl sulfoxide (DMSO, Sigma, D2438) to 20 mM. 100 µL of bacterial suspension (final OD550nm=0.01) in MHB were added to the compound dilutions in each well (concentration range from 0.2 mM to 3.125 µM), and the final suspension was mixed and incubated without shaking at 37° C for 24 h before developing with 30 µL of a 0.01% aqueous solution of resazurin. For the experiment all bacteria were first grown overnight in CAMHB using CLSI recommended incubation conditions.
(§4) The compound MIC, expressed in mM, was defined as the lowest concentration of compound at which no visible growth was obtained.

In a further assay the test system is S. aureus SA0001. The following applies: Staphylococcus aureus, Clinical strain, (resistant to penicillin), read-out: Compound of formula I MIC in the presence of 1.0% DMSO. The method, then:
as §1, §2, §3, §4

A further assay has as its system S. aureus SA0002. Particulars: Staphylococcus aureus, Clinical strain, (resistant to penicillin), read-out: Compound of formula I MIC in the presence of 1.0% DMSO. As for the experimental part:
as §1, §2, §3, §4

In a further assay the test system is S. aureus SA0003. The following applies: Staphylococcus aureus, Clinical strain, (resistant to penicillin), read-out: Compound of formula I MIC in the presence of 1.0% DMSO. As for the experimental part: as §1, §2, §3, §4
Another assay relates to S. aureus SA0004. Particulars: Staphylococcus aureus, Clinical strain, (MRSA, and resistant to ciprofloxacin and cloxacillin), read-out: Compound of formula I MIC in the presence of 1.0% DMSO. As for the experimental part: as §1, §2, §3, §4
The next assay deals with S. aureus Seatle 1945. Particulars: Staphylococcus aureus, ATCC25923, Reference strain, ATCC 25923, read-out: Compound of formula I MIC in the presence of 1.0% DMSO. As for the experimental part: as §1, §2, §3, §4
Another assay relates to S. aureus USA 300. Particulars: Staphylococcus aureus, ATCC BAA-1556 / MRSA / USA300, Reference strain, read-out: Compound of formula I MIC in the presence of 1.0% DMSO. The method, then: as §1, §2, §3, §4
The subject of a further assay is S. aureus V8. Particulars: Staphylococcus aureus, ATCC49775, Reference strain, ATCC 49775, read-out: Compound of formula I MIC in the presence of 1.0% DMSO. The method, then:
as §1, §2, §3, §4

Take `CN(C)CCNC(=O)c1cccc(CNC(=O)Nc2ccc3c(c2)Cc2ccccc2-3)c1` [I, N-[2-(dimethylamino)ethyl]-3-[(9H-fluoren-2-ylcarbamoylamino)methyl]benzamide]: the MIC came to 200 µM in the assay with S. aureus RN4220; 200 µM in the assay with S. aureus SA0001; 100 µM with S. aureus SA0002; 100 µM with S. aureus SA0003; 200 µM with S. aureus SA0004; 200 µM with S. aureus Seatle 1945. Moreover, the minimal inhibitory concentration (MIC) in the assay with S. aureus USA 300 and in the assay on S. aureus V8 was 200 µM throughout.
